Data as given in patent US20230257372A1 (CHONG KUN DANG PHARMACEUTICAL CORP., priority 2020, published 2023).
Where two headings read alike, the source gives them in different places.

Assays:
human recombinant HDAC1 = target: T1, human recombinant HDAC1 (Homo sapiens, UniProt Q13547); assay: HDAC1 enzyme activity inhibition (HDAC Fluorimetric Drug Discovery Kit); format: biochemical; conditions: read-out: HDAC1
T1 construct: purchased Enzo Life Science, Inc. BML-SE456
In short: (§1)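 Fluorimetric deacetylase read-out. 5-fold compound dilutions; […] enzyme, 10 μM substrate; 30° C, 60 min; developer 30 min.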

human recombinant HDAC6 = target: T2, human recombinant HDAC6 (Homo sapiens, UniProt Q9UBN7); assay: HDAC6 enzyme activity inhibition (HDAC Fluorimetric Drug Discovery Kit); format: biochemical
T2 construct: purchased Calbiochem Inc. 382180
T2 sequence (Q9UBN7 1-1215): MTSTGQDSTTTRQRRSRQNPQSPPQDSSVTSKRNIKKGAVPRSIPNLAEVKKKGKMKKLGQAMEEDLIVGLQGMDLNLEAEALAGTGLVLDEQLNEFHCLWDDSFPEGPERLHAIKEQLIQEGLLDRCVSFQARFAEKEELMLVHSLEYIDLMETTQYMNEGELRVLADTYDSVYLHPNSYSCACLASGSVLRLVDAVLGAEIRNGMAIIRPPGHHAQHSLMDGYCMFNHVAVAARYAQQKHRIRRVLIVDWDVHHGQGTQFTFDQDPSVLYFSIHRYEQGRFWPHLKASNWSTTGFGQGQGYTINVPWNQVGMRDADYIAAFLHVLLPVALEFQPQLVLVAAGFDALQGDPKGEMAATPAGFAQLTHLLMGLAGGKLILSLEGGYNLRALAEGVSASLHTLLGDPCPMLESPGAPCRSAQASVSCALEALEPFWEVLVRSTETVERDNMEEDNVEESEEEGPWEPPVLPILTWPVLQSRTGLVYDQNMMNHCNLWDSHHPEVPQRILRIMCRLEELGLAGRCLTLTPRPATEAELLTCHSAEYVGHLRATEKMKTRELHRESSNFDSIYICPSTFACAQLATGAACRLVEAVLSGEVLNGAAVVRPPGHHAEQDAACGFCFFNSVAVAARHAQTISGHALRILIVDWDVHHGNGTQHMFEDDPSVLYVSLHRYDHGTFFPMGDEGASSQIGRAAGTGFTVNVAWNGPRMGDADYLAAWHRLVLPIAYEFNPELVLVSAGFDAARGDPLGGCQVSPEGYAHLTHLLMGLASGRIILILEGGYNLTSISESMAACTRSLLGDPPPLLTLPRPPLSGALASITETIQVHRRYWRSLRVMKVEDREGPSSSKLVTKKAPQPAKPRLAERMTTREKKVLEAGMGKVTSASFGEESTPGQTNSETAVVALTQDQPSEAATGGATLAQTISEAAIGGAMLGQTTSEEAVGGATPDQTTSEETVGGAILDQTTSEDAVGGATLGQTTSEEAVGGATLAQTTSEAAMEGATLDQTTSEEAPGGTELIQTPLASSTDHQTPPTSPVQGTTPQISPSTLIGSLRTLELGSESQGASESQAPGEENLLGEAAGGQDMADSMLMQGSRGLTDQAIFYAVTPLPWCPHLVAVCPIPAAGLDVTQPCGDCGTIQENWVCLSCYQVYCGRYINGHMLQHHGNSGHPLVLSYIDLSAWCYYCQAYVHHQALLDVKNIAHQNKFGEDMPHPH
In short: as §1

[1] = human recombinant HDAC1, IC50 calculated with GraphPad Prism
[2] = human recombinant HDAC6, IC50 calculated with GraphPad Prism
[3] = human recombinant HDAC1, Fluor de Lys substrate, 30° C. 60 minutes
[4] = human recombinant HDAC6, same protocol as HDAC1

T1 sequence (Q13547 whole entry): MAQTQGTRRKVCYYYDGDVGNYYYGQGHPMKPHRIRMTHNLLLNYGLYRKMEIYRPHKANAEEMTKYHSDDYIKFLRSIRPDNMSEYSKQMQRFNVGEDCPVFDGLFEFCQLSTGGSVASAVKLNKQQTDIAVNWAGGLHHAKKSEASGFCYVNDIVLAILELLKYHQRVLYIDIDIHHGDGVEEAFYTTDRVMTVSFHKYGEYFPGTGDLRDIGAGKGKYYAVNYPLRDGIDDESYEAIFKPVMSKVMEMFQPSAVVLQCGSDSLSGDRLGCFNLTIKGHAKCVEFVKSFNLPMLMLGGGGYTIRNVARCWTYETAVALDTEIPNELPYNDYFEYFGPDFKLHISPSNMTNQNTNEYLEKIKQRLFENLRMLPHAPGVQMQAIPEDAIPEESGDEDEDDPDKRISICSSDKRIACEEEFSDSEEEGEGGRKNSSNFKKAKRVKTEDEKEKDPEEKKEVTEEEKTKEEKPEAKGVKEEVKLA

IC50 (human recombinant HDAC1; [1]) [nM]	HDAC6 selectivity (fold) (human recombinant HDAC6; HDAC1 IC50 / HDAC6 IC50)	IC50 (human recombinant HDAC6; [2]) [nM]	IC50 (human recombinant HDAC1; [3]) [nM]	HDAC6 selectivity (fold) (human recombinant HDAC6; HDAC6 over HDAC1)	IC50 (human recombinant HDAC6; [4]) [nM]	Compound
> 50000	446	112				CS(=O)(=O)N1CCC(c2cn(Cc3ccc(-c4nnc(C(F)F)o4)cn3)nn2)CC1 [Compound 3812]
			> 50000	306	163	Fc1cc(-c2nnc(C(F)F)o2)cnc1Cn1cc(-c2cncc(CN3CCC3)c2)nn1 [Compound 18882, 2-(6-((4-(5-(azetidin-1-ylmethyl)pyridin-3-yl)-1H-1,2,3-triazol-1-yl)methyl)-5-fluoropyridin-3-yl)-5-(difluoromethyl)-1,3,4-oxadiazole]
			> 50000	1061	47.1	Fc1cc(-c2nnc(C(F)F)o2)cnc1Cn1cc(-c2ccc(CN3CCC3)cc2Cl)nn1 [Compound 19099, 2-(6-((4-(4-(azetidin-1-ylmethyl)-2-chlorophenyl)-1H-1,2,3-triazol-1-yl)methyl)-5-fluoropyridin-3-yl)-5-(difluoromethyl)-1,3,4-oxadiazole]
			> 50000	506	98.7	Fc1cc(-c2nnc(C(F)F)o2)ccc1Cn1cc(-c2cccc3c2OC(F)(F)O3)nn1 [Compound 18470, 2-(4-((4-(2,2-difluorobenzo[d][1,3]dioxol-4-yl)-1H-1,2,3-triazol-1-yl)methyl)-3-fluorophenyl)-5-(difluoromethyl)-1,3,4-oxadiazole]
> 50000	405	123				CC(=O)N1CCC(F)(c2cn(Cc3ccc(-c4nnc(C(F)F)o4)cn3)nn2)CC1 [Compound 4009, 1-(4-(1-((5-(5-(difluoromethyl)-1,3,4-oxadiazol-2-yl)pyridin-2-yl)methyl)-1H-1,2,3-triazol-4-yl)-4-fluoropiperidin-1-yl)ethan-1-one]
> 50000	1385	36.1				CN1CCc2ccc(-c3cn(Cc4ccc(-c5nnc(C(F)F)o5)cc4F)nn3)cc2C1 [Compound 4363, 2-(difluoromethyl)-5-(3-fluoro-4-((4-(2-methyl-1,2,3,4-tetrahydroisoquinolin-7-yl)-1H-1,2,3-triazol-1-yl)methyl)phenyl)-1,3,4-oxadiazole]
> 50000	877	57				CN1CCN(c2ccccc2-c2cn(Cc3ccc(-c4nnc(C(F)F)o4)cn3)nn2)CC1 [Compound 4106, 2-(difluoromethyl)-5-(6-((4-(2-(4-methylpiperazin-1-yl)phenyl)-1H-1,2,3-triazol-1-yl)methyl)pyridin-3-yl)-1,3,4-oxadiazole]
			> 50000	412	121	CC(C)N1Cc2cccc(-c3cn(Cc4ccc(-c5nnc(C(F)F)o5)cc4)nn3)c2C1 [Compound 4531, 2-(difluoromethyl)-5-(4-((4-(2-isopropylisoindolin-4-yl)-1H-1,2,3-triazol-1-yl)methyl)phenyl)-1,3,4-oxadiazole]
			> 50000	1108	45.1	FC(F)c1nnc(-c2ccc(Cn3cc(-c4cccc5c4CN(C4CCC4)C5)nn3)nc2)o1 [Compound 4598, 2-(6-((4-(2-cyclobutylisoindolin-4-yl)-1H-1,2,3-triazol-1-yl)methyl)pyridin-3-yl)-5-(difluoromethyl)-1,3,4-oxadiazole]
> 50000	527	94.8				FC(F)c1nnc(-c2ccc(Cn3cc(-c4ccccc4)nn3)cc2)o1 [Compound 3657, 2-(difluoromethyl)-5-(4-((4-phenyl-1H-1,2,3-triazol-1-yl)methyl)phenyl)-1,3,4-oxadiazole]
			> 50000	1326	37.7	FC(F)c1nnc(-c2ccc(Cn3cc(-c4ccc5c(c4)CN(C4COC4)C5)nn3)nc2)o1 [Compound 4543, 2-(difluoromethyl)-5-(6-((4-(2-(oxetan-3-yl)isoindolin-5-yl)-1H-1,2,3-triazol-1-yl)methyl)pyridin-3-yl)-1,3,4-oxadiazole]
			> 50000	131	380	Fc1cc(-c2nnc(C(F)F)o2)cnc1Cn1cc(-c2ccccc2CN2CCCC2)nn1 [Compound 18823]
> 50000	100	498				CCCCN1CC(c2cn(Cc3ccc(-c4nnc(C(F)F)o4)cn3)nn2)C1 [Compound 3953, 2-(6-((4-(1-butylazetidin-3-yl)-1H-1,2,3-triazol-1-yl)methyl)pyridin-3-yl)-5-(difluoromethyl)-1,3,4-oxadiazole]
			> 50000	1043	47.9	Fc1cc(-c2nnc(C(F)F)o2)ccc1Cn1cc(-c2ccc(C3CN(C4CCC4)C3)cc2)nn1 [Compound 17699, 2-(4-((4-(4-(1-cyclobutylazetidin-3-yl)phenyl)-1H-1,2,3-triazol-1-yl)methyl)-3-fluorophenyl)-5-(difluoromethyl)-1,3,4-oxadiazole]
			> 50000	646	77.3	Fc1cc(-c2nnc(C(F)F)o2)ccc1Cn1cc(-c2nccs2)nn1 [Compound 17848, 2-(difluoromethyl)-5-(3-fluoro-4-((4-(thiazol-2-yl)-1H-1,2,3-triazol-1-yl)methyl)phenyl)-1,3,4-oxadiazole]
> 50000	1976	16.8				CN1CCN(c2ccc(F)c(-c3cn(Cc4ccc(-c5nnc(C(F)F)o5)cc4)nn3)c2)CC1 [Compound 4451, 2-(difluoromethyl)-5-(4-((4-(2-fluoro-5-(4-methylpiperazin-1-yl)phenyl)-1H-1,2,3-triazol-1-yl)methyl)phenyl)-1,3,4-oxadiazole]
> 50000	1358	36.8				CNCc1cccc(-c2cn(Cc3ccc(-c4nnc(C(F)F)o4)cn3)nn2)c1 [Compound 3919, 1-(3-(1-((5-(5-(difluoromethyl)-1,3,4-oxadiazol-2-yl)pyridin-2-yl)methyl)-1H-1,2,3-triazol-4-yl)phenyl)-N-methylmethanamine]
> 50000	1908	26.2				FC1CN(Cc2cccc(-c3cn(Cc4ccc(-c5nnc(C(F)F)o5)cn4)nn3)c2)C1 [Compound 3964, 2-(difluoromethyl)-5-(6-((4-(3-((3-fluoroazetidin-1-yl)methyl)phenyl)-1H-1,2,3-triazol-1-yl)methyl)pyridin-3-yl)-1,3,4-oxadiazole]
> 50000	571	87.5				CN(C)Cc1c(-c2ccccc2)nnn1Cc1ccc(-c2nnc(C(F)F)o2)cn1 [Compound 4490, 1-(1-((5-(5-(difluoromethyl)-1,3,4-oxadiazol-2-yl)pyridin-2-yl)methyl)-4-phenyl-1H-1,2,3-triazol-5-yl)-N,N-dimethylmethanamine]
			> 50000	2083	24	CN1CCN(Cc2ccc(-c3cn(Cc4ccc(-c5nnc(C(F)F)o5)cn4)nn3)cc2)CC1 [Compound 4562, 2-(difluoromethyl)-5-(6-((4-(4-((4-methylpiperazin-1-yl)methyl)phenyl)-1H-1,2,3-triazol-1-yl)methyl)pyridin-3-yl)-1,3,4-oxadiazole]
> 50000	3401	14.7				FC(F)c1cccc(-c2cn(Cc3ccc(-c4nnc(C(F)F)o4)cn3)nn2)c1 [Compound 4489, 2-(difluoromethyl)-5-(6-((4-(3-(difluoromethyl)phenyl)-1H-1,2,3-triazol-1-yl)methyl)pyridin-3-yl)-1,3,4-oxadiazole]
